Experimental data as given in US6914064B2, “1,4-Disubstituted piperazine derivatives useful as uro-selective α1-adrenoceptor blockers” (Ranbaxy Laboratories Limited, priority 2000, dated 2005).

Experiments:
α1A adrenoceptor = target: T1, α1A adrenoceptor (Rattus norvegicus, UniProt P43140); test: Receptor binding assay, displacement of [3H]prazosin, rat submaxillary membranes; details: for Ki: [3H]prazosin displacement, rat submaxillary membranes, read-out: α1A (Rat submaxillary) Ki; for Selectivity α1B/α1A: ratio of Ki α1B (rat liver) / α1A (rat submaxillary)
T1 construct: from tissue; host or cells: rat submaxillary gland membranes
T1 sequence (P43140 1-466): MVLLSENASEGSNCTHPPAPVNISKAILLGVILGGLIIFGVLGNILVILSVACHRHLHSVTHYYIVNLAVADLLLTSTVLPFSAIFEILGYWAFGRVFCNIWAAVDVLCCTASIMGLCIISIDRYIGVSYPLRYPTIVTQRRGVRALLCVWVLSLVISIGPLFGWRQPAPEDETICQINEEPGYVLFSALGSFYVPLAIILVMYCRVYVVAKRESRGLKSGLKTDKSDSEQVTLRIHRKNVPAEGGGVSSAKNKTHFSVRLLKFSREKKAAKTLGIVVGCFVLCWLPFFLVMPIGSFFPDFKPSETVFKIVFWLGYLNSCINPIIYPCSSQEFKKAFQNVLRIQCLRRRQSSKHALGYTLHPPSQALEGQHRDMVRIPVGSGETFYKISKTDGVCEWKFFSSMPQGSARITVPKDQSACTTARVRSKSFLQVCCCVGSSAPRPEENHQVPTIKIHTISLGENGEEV
Method in brief: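 Rat submaxillary gland membranes (150-250 μg protein) incubated 1 h at 24-25° C in Tris HCl 50 mM, EDTA 5 mM, pH 7.4. Non-specific binding set with 300 nM prazosin; filtration then counting of bound radioactivity. IC50 and Kd from non-linear curve fitting.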

α1B adrenoceptor = target: T2, α1B adrenoceptor (Rattus norvegicus, UniProt P15823); test: Receptor binding assay, displacement of [3H]prazosin, rat liver membranes; details: [3H]prazosin displacement, rat liver membranes; read-out: α1B (Rat liver) Ki
T2 construct: from tissue; host or cells: rat liver membranes
T2 sequence (P15823 1-515): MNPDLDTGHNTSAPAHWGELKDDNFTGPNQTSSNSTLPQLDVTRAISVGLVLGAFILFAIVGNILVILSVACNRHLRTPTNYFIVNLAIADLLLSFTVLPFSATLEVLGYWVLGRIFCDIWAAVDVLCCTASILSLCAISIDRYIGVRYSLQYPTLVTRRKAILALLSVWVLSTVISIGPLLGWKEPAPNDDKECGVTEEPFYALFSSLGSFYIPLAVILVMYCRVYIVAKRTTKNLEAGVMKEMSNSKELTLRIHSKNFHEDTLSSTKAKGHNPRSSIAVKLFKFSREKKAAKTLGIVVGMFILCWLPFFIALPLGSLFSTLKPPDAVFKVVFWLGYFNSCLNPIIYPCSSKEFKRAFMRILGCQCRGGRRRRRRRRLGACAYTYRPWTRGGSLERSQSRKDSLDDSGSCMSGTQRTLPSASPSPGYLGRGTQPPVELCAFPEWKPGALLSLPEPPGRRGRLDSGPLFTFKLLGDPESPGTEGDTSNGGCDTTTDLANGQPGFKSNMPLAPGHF
Method in brief: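 Rat liver membranes (150-250 μg protein) incubated with [3H]prazosin in 50 mM Tris HCl, 5 mM EDTA, pH 7.4, 1 h at 24-25° C; nonspecific binding with 300 nM prazosin. Bound radioactivity counted after filtration; IC50 by nonlinear fit, Ki via Cheng-Prusoff.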

[1] = target: T3, α1A adrenoceptor (prostate) (Rattus norvegicus, UniProt P43140); test: In vitro functional study, antagonism of phenylepinephrine-induced contraction of prostate; format: biochemical; details: for Selectivity α1A/α1B / Selectivity α1A/α1D: functional assays, from pKB values; for Kb: prostate, phenylepinephrine, tested compound at 0.1, 1 and 10 mM, read-out: α Adrenoceptor Subtype (pKB) α1A (converted)
T3 construct: from tissue; host or cells: isolated prostate tissue
T3 sequence (P43140 1-466): T1 sequence (P43140 1-466)
Source text: (§1) In order to study selectivity of action of these compounds towards different α-adrenoceptor subtypes, the ability of these compounds to antagonise α1-adrenoceptor agonist induced contractile response on aorta (α1Dprostate (α1A and spleen (α1B was studied. Aorta and spleen tissues were isolated from urethane anaesthetised (1.5 gm/kg) male wistar rats. Isolated tissues were mounted in organ bath containing Krebs Henseleit buffer of following composition (mM): NaCl 118; KCl 4.7; CaCl2 2.5; MgSO4. 7H2O 1.2; NaHCO3 25; KH2PO41.2; glucose 11.5. Buffer was maintained at 37° C. and aereated with a mixture of 95% O2 and 5% CO2. A resting tension of 2 g (aorta) or 1 g (spleen and prostate)was applied to tissues. Contractile response was monitored using a force displacement transducer and recorded on chart recorders. Tissues were allowed to equilibrate for 2 hours. At the end of equilibration period, concentration response curves to norepinephrine (aorta) and phenylepinephrine (spleen and prostate) were obtained in absence and presence of tested compound (at concentration of 0.1,1 and 10 mM). Antagonist affinity was calculated and expressed as pKB vales in Table II.

[2] = target: T4, α1B adrenoceptor (spleen) (Rattus norvegicus, UniProt P15823); test: In vitro functional study, antagonism of phenylepinephrine-induced contraction of spleen; format: biochemical; details: tested compound at 0.1, 1 and 10 mM, read-out: α Adrenoceptor Subtype (pKB) α1B (converted)
T4 construct: Isolated tissues were mounted in organ bath containing Krebs Henseleit buffer; from tissue; host or cells: isolated spleen of male wistar rats
T4 sequence (P15823 1-515): T2 sequence (P15823 1-515)
Source text: as §1

Compound: COc1ccccc1N1CCN(CCCN2C(=O)C3CC=CCC3C2=O)CC1.Cl (centres unmarked) [Compound 01, 2-[3-{4-(2-Methoxyphenyl)piperazin-1-yl}propyl]-3a,4,7,7a-tetrahydro-1H-isoindole-1,3(2H)-dione hydrochloride]
- Ki (α1A adrenoceptor): 0.8 nM
- Selectivity α1B/α1A (α1A adrenoceptor): 91
- Ki (α1B adrenoceptor): 73 nM
- Selectivity α1A/α1B [1]: 41
- Selectivity α1A/α1D [1]: 4
- Kb [1]: 0.537 nM
- Kb [2]: 21.9 nM
- melting point: 184 to 185 °C

Compound: CCOc1ccccc1N1CCN(CCCN2C(=O)C3CC=CCC3C2=O)CC1.Cl (centres unmarked) [Compound 11, 2-[3-{4-(2-Ethoxyphenyl)piperazin-1-yl}propyl]-3a,4,7,7a-tetrahydro-1H-isoindole-1,3(2H)-dione hydrochloride]
- Ki (α1A adrenoceptor): 0.13 nM
- Selectivity α1B/α1A (α1A adrenoceptor): 146
- Ki (α1B adrenoceptor): 19 nM
- Selectivity α1A/α1B [1]: 47
- Selectivity α1A/α1D [1]: 15
- Kb [1]: 0.112 nM
- Kb [2]: 5.25 nM
- melting point: 221.9 to 222.7 °C

Compound: CC(C)Oc1ccccc1N1CCN(CCCN2C(=O)C3CC=CCC3C2=O)CC1.Cl (centres unmarked) [Compound 23, 2-[3-{4-(2-Isopropoxyphenyl)piperazin-1-yl}propyl]-3a,4,7,7a-tetrahydro-1H-isoindole-1,3(2H)-dione hydrochloride]
- Ki (α1A adrenoceptor): 0.16 nM
- Selectivity α1B/α1A (α1A adrenoceptor): 175
- Ki (α1B adrenoceptor): 28 nM
- Selectivity α1A/α1B [1]: 170
- Selectivity α1A/α1D [1]: 1
- Kb [1]: 0.115 nM
- Kb [2]: 19.5 nM
- melting point: 223 to 224 °C

Compound: CCCOc1ccccc1N1CCN(CCCN2C(=O)C3CC=CCC3C2=O)CC1.Cl (centres unmarked) [Compound 24, 2-[3-{4-(2-Propoxyphenyl)piperazin-1-yl}propyl]-3a,4,7,7a-tetrahydro-1H-isoindole-1,3(2H)-dione hydrochloride]
- Ki (α1A adrenoceptor): 0.24 nM
- Selectivity α1B/α1A (α1A adrenoceptor): 117
- Ki (α1B adrenoceptor): 28 nM
- Selectivity α1A/α1B [1]: 355
- Selectivity α1A/α1D [1]: 13
- Kb [1]: 0.0398 nM
- Kb [2]: 14.1 nM
- melting point: 193 to 194 °C
